Earlier results as cited in PubChem BioAssay AID1259409 (Chemical Carcinogenesis Research Information System (CCRIS), 2018).

Tested on: rodent chemically induced tumor inhibition, incidence and multiplicity
Assay: CCRIS tumor inhibitor studies

In the case of CC1=C(/C=C/C(C)=C/C=C/C(C)=C\C(=O)O)C(C)(C)CCC1, the “tumour outcome (control, treated, inhibition, significance)” value (Carcinogen: N-BUTYL-N-(4-HYDROXYBUTYL)NITROSAMINE, 3817-11-6, Dose [Inhibitor]: 200 MG/KG DIET DAILY STARTING 7 D AFTER LAST CARCINOGEN DOSE AND CONTINUING THROUGH THE END OF STUDY (STUDY DURATION: 6, Route [Inhibitor]: ORAL, Species: MOUSE, Strain/Sex: C57BL/MALE, Target Tissue: Type of Lesion: URINARY BLADDER: TRANSITIONAL AND SQUAMOUS CELL CARCINOMA, Dose [Carcinogen]: 7.5 MG 2/WK FOR 6 WK, Promoter: NONE USED) is given as 8/24 (33%), 0/19 (0%), 100%, p<0.01, the “tumour outcome (control, treated, inhibition, significance)” value (Carcinogen: N-BUTYL-N-(4-HYDROXYBUTYL)NITROSAMINE, 3817-11-6, Dose [Inhibitor]: 200 MG/KG DIET DAILY STARTING 7 D AFTER LAST CARCINOGEN INTUBATION AND CONTINUING THROUGH THE END OF STUDY (STUDY DURATI, Route [Inhibitor]: ORAL, Species: MOUSE, Strain/Sex: C57BL/MALE, Target Tissue: Type of Lesion: URINARY BLADDER: NEOPLASM (CARCINOMA, NONINVASIVE TRANSITIONAL CELL PAPILLOMA), Dose [Carcinogen]: 10 MG 2/WK FOR 7 WK, Promoter: NONE USED) is given as 12/22 (55%), 8/25 (32%), 42%, not significant and the outcome (Carcinogen: N-BUTYL-N-(4-HYDROXYBUTYL)NITROSAMINE, 3817-11-6, Dose [Inhibitor]: 200 MG/KG DIET DAILY STARTING 7 D AFTER LAST CARCINOGEN INTUBATION AND CONTINUING THROUGH THE END OF STUDY (STUDY DURATI, Route [Inhibitor]: ORAL, Species: MOUSE, Strain/Sex: C57BL/MALE, Target Tissue: Type of Lesion: URINARY BLADDER: SQUAMOUS CELL CARCINOMA, Dose [Carcinogen]: 7.5 MG 2/WK FOR 6 WK, Promoter: NONE USED) is given as 6/24 (25%), 0/19 (0%), p<0.05. The “tumour outcome (control, treated, inhibition, significance)” value (Carcinogen: N-BUTYL-N-(4-HYDROXYBUTYL)NITROSAMINE, 3817-11-6, Dose [Inhibitor]: 200 MG/KG DIET DAILY STARTING 7 D AFTER LAST CARCINOGEN INTUBATION AND CONTINUING THROUGH THE END OF STUDY (STUDY DURATI, Route [Inhibitor]: ORAL, Species: MOUSE, Strain/Sex: C57BL/MALE, Target Tissue: Type of Lesion: URINARY BLADDER: SQUAMOUS CELL CARCINOMA, Dose [Carcinogen]: 10 MG 2/WK FOR 7 WK, Promoter: NONE USED) was 6/22 (27%), 5/25 (20%), 26%, not significant, the “tumour outcome (control, treated, inhibition, significance)” value (Carcinogen: N-BUTYL-N-(4-HYDROXYBUTYL)NITROSAMINE, 3817-11-6, Dose [Inhibitor]: 200 MG/KG DIET DAILY STARTING 7 D AFTER LAST CARCINOGEN INTUBATION AND CONTINUING THROUGH THE END OF STUDY (STUDY DURATI, Route [Inhibitor]: ORAL, Species: MOUSE, Strain/Sex: C57BL/MALE, Target Tissue: Type of Lesion: URINARY BLADDER: TRANSITIONAL AND SQUAMOUS CELL CARCINOMA, Dose [Carcinogen]: 10 MG 2/WK FOR 7 WK, Promoter: NONE USED) was 10/22 (45%), 7/25 (28%), 38%, not significant and the “tumour outcome (control, treated, inhibition, significance)” value (Carcinogen: N-BUTYL-N-(4-HYDROXYBUTYL)NITROSAMINE, 3817-11-6, Dose [Inhibitor]: 240 MG/KG DIET DAILY STARTING 1, 5 OR 9 WK AFTER LAST CARCINOGEN INTUBATION AND CONTINUING THROUGH THE END OF STUDY (STU, Route [Inhibitor]: ORAL, Species: RAT, Strain/Sex: F344/MALE, Target Tissue: Type of Lesion: URINARY BLADDER: TRANSITIONAL CELL CARCINOMA, Dose [Carcinogen]: 100 MG 2/WK FOR 6 WK, Promoter: NONE USED) was 53%, 47%, 11%, not significant. For the same molecule, the “tumour outcome (control, treated, inhibition, significance)” value (Carcinogen: N-BUTYL-N-(4-HYDROXYBUTYL)NITROSAMINE, 3817-11-6, Dose [Inhibitor]: 240 MG/KG DIET DAILY STARTING 1, 5 OR 9 WK AFTER LAST CARCINOGEN INTUBATION AND CONTINUING THROUGH THE END OF STUDY (STU, Route [Inhibitor]: ORAL, Species: RAT, Strain/Sex: F344/MALE, Target Tissue: Type of Lesion: URINARY BLADDER: TRANSITIONAL CELL CARCINOMA, Dose [Carcinogen]: 150 MG 2/WK FOR 6 WK, Promoter: NONE USED) was 82%, 65%, 21%, p<0.01, the “tumour outcome (control, treated, inhibition, significance)” value (Carcinogen: N-BUTYL-N-(4-HYDROXYBUTYL)NITROSAMINE, 3817-11-6, Dose [Inhibitor]: 240 MG/KG DIET DAILY STARTING 1, 5 OR 9 WK AFTER LAST CARCINOGEN INTUBATION AND CONTINUING THROUGH THE END OF STUDY (STU, Route [Inhibitor]: ORAL, Species: RAT, Strain/Sex: F344/MALE, Target Tissue: Type of Lesion: URINARY BLADDER: TRANSITIONAL CELL CARCINOMA, Dose [Carcinogen]: 200 MG 2/WK FOR 6 WK, Promoter: NONE USED) was 94%, 74%, 21%, p<0.001 and the “tumour outcome (control, treated, inhibition, significance)” value (Carcinogen: N-BUTYL-N-(4-HYDROXYBUTYL)NITROSAMINE, 3817-11-6, Dose [Inhibitor]: 240 MG/KG DIET DAILY STARTING 1 WK AFTER LAST CARCINOGEN DOSE AND CONTINUING FOR DURATION OF STUDY (STUDY DURATION: 6 MO, Route [Inhibitor]: ORAL, Species: RAT, Strain/Sex: F344/MALE, Target Tissue: Type of Lesion: BLADDER: TRANSITIONAL CELL CARCINOMA (HIGH GRADE), Dose [Carcinogen]: 200 MG IN 0.5 ML OF 20% ETHANOL 2/WK FOR 6 WK, Promoter: NONE USED) was 9/22 (41%), 4/21(19%), 54%, p<.05. For the same molecule, the “tumour outcome (control, treated, inhibition, significance)” value (Carcinogen: N-METHYL-N'-NITRO-N-NITROSOGUANIDINE, 70-25-7, Dose [Inhibitor]: 34 NMOL ONCE 0.5 HR BEFORE CARCINOGEN APPLICATION (STUDY DURATION: 25 WK), Route [Inhibitor]: DERMAL, Species: MOUSE, Strain/Sex: CD-1/FEMALE, Target Tissue: Type of Lesion: SKIN: PAPILLOMA, Dose [Carcinogen]: 5 UMOL IN 0.2 ML ACETONE ONCE 0.5 HR AFTER AGENT TREATMENT, Promoter: 12-O-TETRADECANOYLPHORBOL-13-ACETATE, 16561-29-8) was 92%, 96%, -4%, not significant and the “tumour outcome (control, treated, inhibition, significance)” value (Carcinogen: N-METHYL-N-NITROSOUREA, 684-93-5, Dose [Inhibitor]: 12.5 MG/KG DAILY IN DIET STARTING 1 D AFTER LAST CARCINOGEN INJECTION AND CONTINUING FOR 256 D (STUDY DURATION: 285 D), Route [Inhibitor]: ORAL, Species: RAT, Strain/Sex: WISTAR-LEWIS/FEMALE, Target Tissue: Type of Lesion: URINARY BLADDER: PAPILLARY UROTHELIAL TUMOR, Dose [Carcinogen]: 1.5 MG IN 0.15 ML SALINE INJECTED INTO A SURGICALLY EXPOSED BLADDER 1/2 WK FOR A TOTAL OF 3 INJECTIONS, Promoter: NONE USED) was 8/30 (27%), 2/21 (10%), 63%, p<0.05.
